For one data set, the species on record is Mus musculus. In words: Biodistribution in C57BL/6 mouse blood after 30 mins. In kind it is ADME, organism-based. The following applies: in vivo, 0.5 h.
The next data set has as its system B16. In words: Decrease in transfection efficacy in […] B16 cells assessed by luciferase assay. It counts as functional, cell-based.

Activity calls are given as the source filed them. The rule behind the calls is not given here.

Two compounds from ChEMBL document CHEMBL1147894, “Amphiphilic polyether branched molecules to increase the circulation time of cationic particles” (Bioorg Med Chem, 2007) can be followed below.

As to `CCCCCCCCCCCCCCN(CCCCCCCCCCCCCC)C(=O)CNC(=O)CNCCCN(CCCN)CCCN.Cl.Cl.Cl.Cl`, the Activity in the data set filed under Mus musculus is listed as 2.7%. `CCCCCCCCCCCCCCCCCCN(CCCCCCCCCCCCCCCCCC)C(=O)CNC(=O)CNC(=O)CNC(=O)OCC(COC(CO)CO)COC(CO)CO`: the outcome in the data set with B16 was Active. For the same compound, the Activity in the data set listed under Mus musculus was 8%.
